# Assay results published in publication PMC11645189 (ACS infectious diseases, 2024).
# pIC50: −log10 of the molar value.
# Experiments:
# P. falciparum D6 = details: read-out: asexual blood-stage vs. P. falciparum D6 IC50; cited from earlier work
# P. yoelii = experiment: in vivo blood-stage efficacy in the P. yoelii mouse model; design: species or system Plasmodium yoelii
# [1] = test system: P. falciparum stage V gametocytes; experiment: gametocytocidal assay using late-stage gametocytes; format: cell-based; details: Plasmodium falciparum, read-out: sexual blood-stage vs. P. falciparum stage V gametocytes IC50
smiles,measurement,setting,value
"O=C1C(O)=C([C@H]2CC[C@H](c3ccc(Cl)cc3)CC2)C(=O)c2ccccc21 [ATQ, Atovaquone]",pIC50,P. falciparum D6,10.00
"CCN(CC)CCCC(C)Nc1ccnc2cc(Cl)ccc12 (stereo not shown) [CQ, chloroquine]",in vivo %parasitemia reduction vs. controls on day 5,P. yoelii; 25 mg/kg/4d oral,100%
same,in vivo %parasitemia reduction vs. controls on day 5,P. yoelii; 50 mg/kg/4d oral,100%
CN(C)c1ccc2nc3ccc(=[N+](C)C)cc-3sc2c1 [methylene blue],pIC50,[1],6.84
